Consider eight compounds from ChEMBL document CHEMBL1152666, “Structure-based virtual screening approach to the discovery of novel inhibitors of factor-inhibiting HIF-1: identification of new chelating groups for the active-site ferrous ion” (Bioorg Med Chem, 2009).

The target of this assay is Hypoxia-inducible factor 1-alpha inhibitor (Homo sapiens, UniProt Q9NWT6). The assay is described as follows: Inhibition of human recombinant FIH1.
Hypoxia-inducible factor 1-alpha inhibitor, sequence (Q9NWT6 whole entry): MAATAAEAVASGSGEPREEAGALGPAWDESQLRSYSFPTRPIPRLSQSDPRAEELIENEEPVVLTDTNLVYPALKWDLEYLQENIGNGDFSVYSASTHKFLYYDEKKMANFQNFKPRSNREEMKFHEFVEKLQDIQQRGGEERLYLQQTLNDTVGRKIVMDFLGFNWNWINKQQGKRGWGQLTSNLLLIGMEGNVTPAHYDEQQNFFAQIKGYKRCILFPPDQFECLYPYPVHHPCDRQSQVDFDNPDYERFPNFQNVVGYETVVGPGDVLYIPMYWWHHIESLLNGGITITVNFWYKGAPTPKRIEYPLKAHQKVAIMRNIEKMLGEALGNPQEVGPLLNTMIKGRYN

Regarding `COc1cccc(/C=C2\SC(=S)N(CCC(=O)Nc3cccc4nonc34)C2=O)c1`, the half-maximal inhibitory concentration (IC50) (usually the concentration at which inhibition is half-maximal) was 73.1 µM. With `COc1cccc(/C=C2\SC(=S)N(CC(=O)Nc3cccc4nonc34)C2=O)c1` the figure was 45.3 µM; with `O=C(O)CCN1C(=O)/C(=C\c2ccc(-c3ccc(Cl)cc3)o2)SC1=S`, 66 µM. `O=C(CCN1C(=O)/C(=C\C=C\c2ccco2)SC1=S)Nc1cccc2nonc12`: the IC50 stood at 48.6 µM. The value for `CCSc1ccc(-c2nn(-c3ccccc3)cc2/C=C2/SC(=S)N(CC(=O)O)C2=O)cc1` was 36.2 µM; that for `COc1ccccc1/C=C/c1cn2c(-c3ccc4ccccc4n3)nnc2s1` was 47.5 µM. Consider `COc1ccccc1OCc1cn2c(-c3ccc4ccccc4n3)nnc2s1`, for which the IC50 stood at 41.4 µM. As for `COc1ccccc1/C=C1\SC(=S)N(CCC(=O)Nc2ccc(S(N)(=O)=O)cc2)C1=O`, the IC50 came out at 32.1 µM.
